Experimental data: ChEMBL document CHEMBL1201862, “PubChem BioAssay data set” (2004)
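1) Cells in 96-well plates. 2) Compound, 48 h, 5 concentrations. 3) Linear interpolation between surrounding doses. 4) Unreached endpoint = highest concentration. The concentration for 50% growth inhibition is given as GI50.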 Calls of active or inactive are those of the source. Cut-off read from the data, not from the text of the source: active = GI50 up to about 1.1 µM and inactive = higher.

Legend:
Test in all cases: DTP human tumour cell line panel, 48 h
[1] = test system: HCT-116
[2] = test system: OVCAR-5
[3] = test system: SF-268
[4] = test system: OVCAR-4
[5] = test system: SW-620
[6] = test system: UACC-257
[7] = test system: PC-3
[8] = test system: SK-MEL-5
[9] = test system: KM12
[10] = test system: HOP-92
[11] = test system: HOP-62
[12] = test system: SR
[13] = test system: UO-31
[14] = test system: MDA-MB-435
[15] = test system: MCF7
[16] = test system: A549
[17] = test system: UACC-62
[18] = test system: Hs-578T
[19] = test system: SNB-75
[20] = test system: SN12C
[21] = test system: NCI-H23
[22] = test system: LOX IMVI
[23] = test system: M14
[24] = test system: BT-549
[25] = test system: MDA-N
[26] = test system: DU-145
[27] = test system: HCC 2998
[28] = test system: HCT-15
[29] = test system: RPMI-8226
[30] = test system: SF-295
[31] = test system: COLO 205
[32] = test system: ACHN
[33] = test system: NCI-H522
[34] = test system: 786-0
[35] = test system: NCI-H460
[36] = test system: TK-10
[37] = test system: U-251
[38] = test system: SK-MEL-28
[39] = test system: EKVX
[40] = test system: HT-29
[41] = test system: T47D
[42] = test system: OVCAR-8
[43] = test system: SK-OV-3
[44] = test system: Malme-3M
[45] = test system: NCI/ADR-RES
[46] = test system: A498
[47] = test system: CAKI-1
[48] = test system: MDA-MB-231
[49] = test system: IGROV-1
[50] = test system: MOLT-4
[51] = test system: K562
[52] = test system: SK-MEL-2
[53] = test system: RXF 393
[54] = test system: SNB-19

COCN1C(=O)[C@@H]2CCCN2C(=O)c2cc(Cl)ccc21
GI50 [1]: > 100 µM (inactive) | GI50 [2]: > 100 µM (inactive) | GI50 [3]: > 100 µM (inactive) | GI50 [4]: > 100 µM (inactive) | GI50 [5]: > 100 µM (inactive) | GI50 [6]: > 100 µM (inactive) | GI50 [7]: > 100 µM (inactive) | GI50 [8]: > 100 µM (inactive) | GI50 [9]: > 100 µM (inactive) | GI50 [10]: > 100 µM (inactive) | GI50 [11]: > 100 µM (inactive) | GI50 [12]: > 100 µM (inactive) | GI50 [13]: > 100 µM (inactive) | GI50 [14]: > 100 µM (inactive) | GI50 [15]: > 100 µM (inactive) | GI50 [16]: > 100 µM (inactive) | GI50 [17]: > 100 µM (inactive) | GI50 [18]: > 100 µM (inactive) | GI50 [19]: > 100 µM (inactive) | GI50 [20]: > 100 µM (inactive) | GI50 [21]: > 100 µM (inactive) | GI50 [22]: > 100 µM (inactive) | GI50 [23]: > 100 µM (inactive) | GI50 [24]: > 100 µM (inactive) | GI50 [25]: > 100 µM (inactive) | GI50 [26]: > 100 µM (inactive) | GI50 [27]: > 100 µM (inactive) | GI50 [28]: > 100 µM | GI50 [29]: > 100 µM (inactive) | GI50 [30]: > 100 µM (inactive) | GI50 [31]: > 100 µM (inactive) | GI50 [32]: > 100 µM (inactive) | GI50 [33]: > 100 µM (inactive) | GI50 [34]: > 100 µM (inactive) | GI50 [35]: > 100 µM (inactive) | GI50 [36]: > 100 µM (inactive) | GI50 [37]: > 100 µM (inactive) | GI50 [38]: > 100 µM (inactive) | GI50 [39]: > 100 µM (inactive) | GI50 [40]: > 100 µM (inactive) | GI50 [41]: > 100 µM (inactive) | GI50 [42]: > 100 µM (inactive) | GI50 [43]: > 100 µM (inactive) | GI50 [44]: > 100 µM (inactive) | GI50 [45]: > 100 µM (inactive) | GI50 [46]: > 100 µM (inactive) | GI50 [47]: > 100 µM (inactive) | GI50 [48]: > 100 µM (inactive) | GI50 [49]: > 100 µM (inactive) | GI50 [50]: > 100 µM (inactive) | GI50 [51]: > 100 µM (inactive) | GI50 [52]: > 100 µM (inactive) | GI50 [53]: > 100 µM (inactive) | GI50 [54]: > 100 µM (inactive)
